The target in one data set is α1 Receptor. The data set can be described thus: α1 receptor binding. As to conditions: read-out: α1 Receptor Binding IC50, Alpha1.
In data set [1] the target is T1, norepinephrine uptake, rat hypothalamus synaptosomes (Rattus norvegicus, UniProt Q9WTR4).
T1 construct: synaptosomes isolated at Cerep in a 0.32 M sucrose buffer from a male Wistar rat hypothalamus; from tissue; host or cells: male Wistar rat hypothalamus synaptosomes
The data set can be described thus: Norepinephrine uptake functional assay (synaptosomes). Type of data set: biochemical, male Wistar rat. Particulars: [3H]-norepinephrine, read-out: Monoamine Neuronal Transport IC50, NE uptake. The method, then:
Norepinephrine Uptake Functional Assay
Characterization of norepinephrine uptake is performed using synaptosomes isolated at Cerep in a 0.32 M sucrose buffer from a male Wistar rat hypothalamus. The uptake of radiolabeled norepinephrine by synaptosomes (100 μg of proteins/point) is allowed by incubating them for 20 minutes at 37° C. in presence of test compounds and [3H]-norepinephrine (0.1 μCi/point). The experiment is performed in a deep well.
Synaptosomes and [3H]-norepinephrine are prepared in a Krebs buffer pH 7.4 containing 25 mM NaHCO3, 11 mM glucose and 50 μM ascorbic acid. This incubation buffer is oxygenated during 5 minutes before incubation. Basal control is incubated for 20 minutes at 4° C. in order to avoid any uptake. Following this incubation the uptake is stopped by filtration through an “unifilter 96-wells GFB ” Packard plate washed with Krebs buffer containing 25 mM NaHCO3 in order to eliminate the free [3H]-norepinephrine. The radioactivity associated to the synaptosomes retained onto the unifilter corresponding to the uptake is then measured with a microplate scintillation counter Topcount, Packard using a scintillation liquid microscint 0, Packard.
[See Perovics and Müller, op.cit. (1995).]

The conditions of data set [2]: cited from earlier work.
The subject of data set [3] is alpha1-adrenergic receptors. Particulars: cited from earlier work.
The subject of data set [4] is alpha2 adrenergic receptors. As to conditions: in vitro binding studies; cited from earlier work.
Data set [5] concerns beta adrenergic receptors. Particulars: in vitro binding studies; cited from earlier work.
The target in the next data set is T2, 5-HT1A receptors (Homo sapiens, UniProt P08908).
T2 sequence (P08908 1-422): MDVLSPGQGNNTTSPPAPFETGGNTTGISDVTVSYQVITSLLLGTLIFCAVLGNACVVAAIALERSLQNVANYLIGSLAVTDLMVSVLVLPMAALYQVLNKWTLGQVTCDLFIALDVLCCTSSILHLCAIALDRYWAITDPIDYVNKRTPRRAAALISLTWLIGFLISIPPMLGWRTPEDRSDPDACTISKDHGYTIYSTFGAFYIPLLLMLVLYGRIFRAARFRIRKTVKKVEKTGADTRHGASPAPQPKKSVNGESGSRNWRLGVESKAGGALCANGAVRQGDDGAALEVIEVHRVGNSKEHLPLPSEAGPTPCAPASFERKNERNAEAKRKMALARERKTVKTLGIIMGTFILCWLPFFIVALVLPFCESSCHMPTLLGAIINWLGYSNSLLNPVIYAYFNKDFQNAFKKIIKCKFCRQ
As to conditions: in vitro binding studies; cited from earlier work.

Another data set relates to cholinergic receptors. As to conditions: in vitro binding studies; cited from earlier work.
Another data set has as its system dopaminergic receptors. Particulars: in vitro binding studies; cited from earlier work.
For another data set, the system named is benzodiazepine receptors. Particulars: in vitro binding studies; cited from earlier work.

Structures can show the parent of a compound that is named as a salt.

The term IC50 denotes the point on the concentration scale where inhibition reaches its midpoint. In general, half-life refers to the time needed for the level to fall by half in the phase considered.

T1 sequence (Q9WTR4 1-597): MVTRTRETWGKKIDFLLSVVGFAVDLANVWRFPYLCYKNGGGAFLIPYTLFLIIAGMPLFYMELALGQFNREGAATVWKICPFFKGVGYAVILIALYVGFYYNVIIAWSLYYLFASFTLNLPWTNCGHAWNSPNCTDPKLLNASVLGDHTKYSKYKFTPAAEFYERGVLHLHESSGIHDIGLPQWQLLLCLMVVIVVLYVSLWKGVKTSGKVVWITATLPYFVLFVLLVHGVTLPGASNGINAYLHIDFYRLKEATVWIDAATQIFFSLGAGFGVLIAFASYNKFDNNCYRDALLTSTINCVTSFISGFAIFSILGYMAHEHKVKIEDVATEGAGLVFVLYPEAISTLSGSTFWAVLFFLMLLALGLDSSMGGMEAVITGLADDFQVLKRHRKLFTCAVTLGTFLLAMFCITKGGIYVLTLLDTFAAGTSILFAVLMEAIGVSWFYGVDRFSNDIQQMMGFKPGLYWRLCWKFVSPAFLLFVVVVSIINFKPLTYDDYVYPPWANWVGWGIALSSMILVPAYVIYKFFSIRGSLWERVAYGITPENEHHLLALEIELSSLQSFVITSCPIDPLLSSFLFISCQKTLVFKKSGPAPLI

On to `CC(O)c1nn(CCCN2CCN(c3cccc(Cl)c3)CC2)c(=O)n1CCOc1ccccc1` (racemic) [(RS)—OH, 2-[3-[4-(3-chlorophenyl)1-piperazinyl]propyl]-5-(1-hydroxyethyl)-2,4-dihydro-4-(phenoxyethyl)-3H-1,2,4-triazol-3-one], for which the IC50 on α1 Receptor was determined as 381 nM; in data set [1] it was 1000 nM.

Consider `CCc1nn(CCCN2CCN(c3cccc(Cl)c3)CC2)c(=O)n1CCOc1ccccc1` [Nefazodone hydrochloride], for which the absolute bioavailability entry in data set [2] (low and variable because of extensive metabolism) was “about 20%”.

Consider `C[C@H](O)c1nn(CCCN2CCN(c3cccc(Cl)c3)CC2)c(=O)n1CCOc1ccccc1` [(S)—OH, (S)-2-{3-[4-(3-Chlorophenyl)-1-piperazinyl]propyl}-4-(2-phenoxyethyl)-5-[1-(hydroxy)-ethyl]-2,4-dihydro-[1,2,4]triazol-3-one], for which the IC50 was found to be 419 nM on α1 Receptor and 1500 nM in data set [1].

Take `C[C@@H](O)c1nn(CCCN2CCN(c3cccc(Cl)c3)CC2)c(=O)n1CCOc1ccccc1` [(R)—OH, (R)-Hydroxynefazodone hydrochloride]: the IC50 on α1 Receptor came to 367 nM; in [1] it was 1200 nM.

For the compound `CCc1nn(CCCN2CCN(c3cccc(Cl)c3)CC2)c(=O)n1CCOc1ccccc1` [Nefazodone], the IC50 at α1 Receptor was found to be 306 nM. In addition, in data set [2] (in vivo), the half-life is 2 to 4 h and the “time of peak plasma concentrations” value was “about one”. Also, the “effect on alpha1-adrenergic receptors” value in data set [3] was “antagonize”. Also, the “affinity for alpha2 adrenergic receptors” value in [4] was “no significant affinity”. In addition, in data set [5], the “affinity for beta adrenergic receptors” value is reported as “no significant affinity”. In addition, the “affinity for 5-HT1A receptors” value at 5-HT1A receptors is recorded as “no significant affinity”. For the same compound, the “affinity for cholinergic receptors” value with cholinergic receptors is “no significant affinity”. Further, in the data set on dopaminergic receptors, the “affinity for dopaminergic receptors” value is given as “no significant affinity”. The “affinity for benzodiazepine receptors” value in the data set with benzodiazepine receptors is listed as “no significant affinity”.

Values taken from patent publication US6586437B2, “(S)-hydroxynefazodone antipsychotic therapy” (Sepracor Inc., priority 1999, dated 2003).
